Experimental data taken from paper PMC6916368, “Cell‐Based Optimization of Covalent Reversible Ketoamide Inhibitors Bridging the Unprimed to the Primed Site of the Proteasome β5 Subunit” (Chemmedchem, 2019).

What was measured:
[1] = system: THP‐1 cells; test: Cell viability endpoint assay (Celltiter Blue, 72 h); assay type: cell-based; settings: Homo sapiens, mean±SD from two independent experiments
Outline: (§1)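 Proteasome inhibitors were tested at 1 nM to 10 μM final on 50.000 cells/well in RPMI-1640 with 0.1 % FBS, plated overnight beforehand, at 37 °C and 5 % CO2. Reagent was incubated 120 minutes before the fluorescence read. IC50 came from a sigmoidal fit of technical triplicates, as the mean of two independent experiments.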

[2] = system: Jurkat cells; test: as above; assay type: cell-based; settings: Homo sapiens, mean±SD from two independent experiments
Outline: as §1

[3] = system: MV4‐11 cells; test: as above; assay type: cell-based; settings: Homo sapiens, MV4-11, mean±SD from two independent experiments
Outline: as §1

[4] = system: Danio rerio embryos; test: Danio rerio embryo toxicity assay (not dechorionated); assay type: in vivo
Procedure: Danio rerio embryo toxicity assay. Fish keeping protocols are approved by the Darmstadt administrative authority and documented. All fish were treated humanely. […] Embryos were decollated into separate wells containing a total volume of 200 μL and the inhibitor at the given concentration.

[5] = system: Danio rerio embryos; test: Danio rerio escape response (neurotoxicity) assay, dechorionated embryos; assay type: in vivo; settings: for Survived (embryos of 4): dechorionated
Procedure: Danio rerio escape response assay. 24 hours past fertilization embryos were dechorionated and transferred into 96‐well plates containing 198 μL of E3 media at 26 °C. […] Incubation times were 24 h, 48 h and 72 h. Survival of the embryos was determined by visual analysis of heart‐beat. For recording the touch evoked escape response, embryos were transferred to a microscopy slide with cavity that is placed on a SL‐300 LED Soft Light (Dörr, Neu‐Ulm, Germany) under a MotionBlitz EoSens mini1‐1 MC1370 high speed camera (Mikrotron, Unterschleißheim, Germany, Figure S18). An escape response was triggered by a touch stimulus at the trunk of embryos using a small sewing needle, which is slightly blunted. For each embryo, a maximum of 50 stimuli was applied. […] No escape response was determined if only one embryo was alive at 96 hpf. Movement was recorded at 96 hpf at 500 frames per second for 3 seconds using the MotionBlitzDirector 2 software. Determination of the amplitude α defined by the body angle spanned between the head, yolk and tail using a MATLAB‐based software tool and plotted using GraphPad Prism 7.02.

[6] = target: T1, β5i subunit of isolated human 20S proteasome (Homo sapiens, UniProt P28062); test: Proteasome inhibition assay (20 S Proteasome Assay Kit, Suc‐LLVY‐AMC); assay type: biochemical
T1 construct: purchased Enzo Life Sciences
Outline: (§2)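 Isolated human 20S proteasome (200 ng/well) preincubated 30 min with inhibitor, then 100 μM final Suc-LLVY-AMC (β5c, β5i) or Z-LLE-AMC (β1c) added for 60 min; fluorescence read. Residual activity at 100 nM final (n=3; β5c, β5i) or 1 μM (n=1, incl. β1c). IC50s: technical duplicates, mean of three experiments.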

[7] = target: T2, β5c subunit of isolated human 20S proteasome (Homo sapiens, UniProt P28074); test: as above; assay type: biochemical
T2 construct: purchased Enzo Life Sciences
Outline: as §2

[8] = Danio rerio (zebrafish) embryos, in vivo
[9] = Danio rerio (zebrafish) embryos, in vivo, 24 h, 25 μM
[10] = Danio rerio (zebrafish) embryos, in vivo, 24 h, 50 µM
[11] = Danio rerio (zebrafish) embryos, in vivo, 48 h, 25 μM
[12] = Danio rerio, in vivo, 24 h, 25 µM
[13] = Danio rerio, in vivo, 24 h, 50 µM
[14] = Danio rerio, in vivo, 48 h, 25 µM

Cc1cc(C)c(Oc2ccccc2)cc1NC(=O)C(=O)[C@H](CC(C)C)NC(=O)[C@H](CC(C)C)NC(=O)[C@H](CC(C)C)NC(=O)c1cc(Cl)ccc1Cl [Compound 27, 2,5‐Dichloro‐N‐((S)‐1‐(((S)‐1‐(((S)‐1‐((2,4‐dimethyl‐5‐phenoxyphenyl)amino)‐5‐methyl‐1,2‐dioxo‐hexan‐3‐yl)amino)‐4‐methyl‐1‐oxopentan‐2‐yl)amino)‐4‐methyl‐1‐oxopentan‐2‐yl)benzamide]
IC50 [1]: 66 ± 1 nM | IC50 [2]: 11 ± 1 nM | IC50 [3]: 7.4 ± 2.6 nM | Survival of embryos (not dechorionated) ([4]; 1 µM, 24 h): 100% | Survival of embryos (not dechorionated) ([4]; 1 µM, 48 h): 100% | Survival of embryos (not dechorionated) ([4]; 1 µM, 72 h): 100% | Survival of embryos (not dechorionated) ([4]; 1 µM, 96 h): 100% | Survival of embryos (not dechorionated) ([4]; 5 µM, 24 h): 100% | Survival of embryos (not dechorionated) ([4]; 5 µM, 48 h): 100% | Survival of embryos (not dechorionated) ([4]; 5 µM, 72 h): 100% | Survival of embryos (not dechorionated) ([4]; 5 µM, 96 h): 100% | Survival of embryos (not dechorionated) ([4]; 10 µM, 24 h): 100% | Survival of embryos (not dechorionated) ([4]; 10 µM, 48 h): 100% | Survival of embryos (not dechorionated) ([4]; 10 µM, 72 h): 100% | Survival of embryos (not dechorionated) ([4]; 10 µM, 96 h): 100% | Survival of embryos (not dechorionated) ([4]; 25 µM, 24 h): 100% | Survival of embryos (not dechorionated) ([4]; 25 µM, 48 h): 100% | Survival of embryos (not dechorionated) ([4]; 25 µM, 72 h): 100% | Survival of embryos (not dechorionated) ([4]; 25 µM, 96 h): 100% | Fold-response [5, 8]: 29 | Relative reflexes / Stimuli, Mean [5, 8]: 0,81 | Number of movements per 100 ms, Difference between means [5, 9]: 0,4767 ± 0,4422 | Reflex Duration [5, 9]: 295,3 ± 28,5 ms | Relative reflexes / Stimuli [5, 9]: 1,000 | mean reflexes per stimuli [5, 9]: 100% | C-Bend Duration [5, 10]: 19,2 ± 2,2 ms | Number of movements per 100 ms, Difference between means [5, 10]: 0,4019 ± 0,4349 | Number of total movements, Difference between means [5, 10]: 16,56 ± 4,371 | Relative reflexes / Stimuli [5, 10]: 1,000 | mean reflexes per stimuli [5, 10]: 100% | Number of movements per 100 ms, Difference between means [5, 11]: 0,545 ± 0,4127 | Reflex Duration [5, 11]: 403,6 ± 30,9 ms | Relative reflexes / Stimuli [5, 11]: 0,545 | mean reflexes per stimuli [5, 11]: 55% | C-Bend Amplitude, Difference between means [5, 12]: - 2,833 ± 19,93 | C-Bend Duration [5, 12]: 14 ± 0,8165 ms | C-Bend duration, Difference between means [5, 12]: -5,667 ± 1,826 | Number of total movements, Difference between means [5, 12]: - 2,611 ± 3,6 | Reflex Duration [5, 12]: 295,3 ± 28,53 ms | Reflex Duration, Difference between means [5, 12]: - 95,33 ± 66,93 | C-Bend Amplitude, Difference between means [5, 13]: - 7,333 ± 15,18 | C-Bend Duration [5, 13]: 19,17 ± 2,212 ms | C-Bend duration, Difference between means [5, 13]: - 0,5 ± 2,458 | Reflex Duration [5, 13]: 799 ± 91,81 ms | Reflex Duration, Difference between means [5, 13]: 408,3 ± 96,75 | C-Bend Amplitude, Difference between means [5, 14]: - 9,167 ± 17,34 | C-Bend Duration [5, 14]: 15,56 ± 0,5031 ms | C-Bend duration, Difference between means [5, 14]: -4,111 ± 1,464 | Number of total movements, Difference between means [5, 14]: 1,889 ± 3,151 | Reflex Duration [5, 14]: 403,6 ± 30,92 ms | Reflex Duration, Difference between means [5, 14]: 12,89 ± 59,4 | overall survival at low doses ([5]; dechorionated embryos): 58% | Survived (embryos of 4) ([5]; 25 µM, 24 h): 2 | Survived (embryos of 4) ([5]; 25 µM, 48 h): 2 | Survived (embryos of 4) ([5]; 50 µM, 24 h): 3 | inhibition at 1 µM ([6]; c = 1 µM, n=1, read-out: Inhibition iCP β5): 68% | inhibition at 0.1 µM ([6]; c=100 nM, read-out: Rel. Inhibition β5i): 58% | IC50 ([6]; purified proteasome): 96 nM | inhibition at 1 µM ([7]; c = 1 µM, n=1, read-out: Inhibition cCP β5): 91% | inhibition at 0.1 µM ([7]; c=100 nM, read-out: Rel. Inhibition β5c): 83% | IC50 ([7]; purified proteasome): 23 nM | Fold‐IC50 β5i/β5c ([7]; selectivity β5c over β5i): 4.2
